{
  "source": "patent US7173021B2",
  "about": "“Synthesis of temozolomide esters as potent anticancer pro-drugs for topical and transdermal applications in treatments of cancers” (Tianjin North Pharm Sci-Tech Co., Ltd., priority 2004, dated 2007)",
  "key": {"[1]": {"system": "MV3 (human melanoma)", "test": "In vitro tumour cell growth inhibition (MTT), MV3", "assay_type": "cell-based", "details": "Homo sapiens, 96 h", "experimental": "(§1) Temozolomide (white powder), temozolomide acid (white powder) and temozolomide-8-carboxylate hexyl (white scale crystal) were made in house. For the estimation of in vitro tumour cell growth inhibition, MV3 (human melanoma), M14 (human melanoma), B16 and B16-BL6 (mouse melanoma), SHG-44, TJ899 and TJ905 (human glioma), MCF-7 (human breast), HCT-8 (human colon), A549 (human non small lung), Bel7402 (human hepatocellulor), and BGC-823 (human stomach) were used. All tumour cells were cultured in RPMI-1640 medium supplemented with 10% fetal bovine serum (FBS) at 37° C. in a humidified 5% CO2 incubator.\n(§2) After being harvested from culture flasks, a cell suspension of 1×10^4/ml was made by using 1640 RPMI medium supplemented with 10% fetal bovine serum. 100 μl (contains 1000 tumour cells) of the cell suspension was seeded per well of 96-well flat-bottom Costar culture plates at 37° C. in a humidified 5% CO2 incubator for 24 hrs before introducing drugs. Each tested compounds was made for five different concentrations and 100 μl of the each concentration was introduced into parallel three wells; control wells were added with 100 μl of plain medium alone; fluorouracil (a chemotherapeutic antitumour drug) was used as the positive control. Cells were then incubated for 96 h. Proliferative response and cell death were determined using MTT (3-(4,5-dimethylthiazolyl)-2,5-diphenyl-tetrazolium bromide) assay.\n(§3) MTT assay: Following incubation of cells with the tested compounds for 96 h, 100 μl of 0.4 mg/ml MTT in RPMI 1640 was added to each well and the plate was incubated at 37° C. for 4 h. The plate was then centrifuged and followed by removal of medium. 150 μl of DMSO was then added to dissolve formazan crystal. DMSO-added plates were placed on a plate shaker for 5 min and absorbance was measured spectrophotometrically at 540 nm (with reference wavelength at 450 nm) using a Benchmark microtiter plate reader (Bio-Rad 550, Bio-Rad Laboratories, CA, U.S.A.).\n(§4) The IC50 was calculated from the curve of the tested compound concentrations against the inhibition rate of the tumour cells. Table 1 summarized the experiment results by using six human cancer cell lines, HCT-8 (colon carcinoma), A549 (non small lung carcinoma), MCF-7 (breast), Bel7402 (hepatocellulor carcinoma), BGC-823 (stomach adenocarcinoma), and MV3 (melanoma). Table 2 summarized the results from the experiment results by using two human melanoma cell lines, MV3 and M14, two mouse melanoma cell lines, B16 and B16-BL6, and three human glioma cell lines, TJ899, SHG-44 and TJ905."}, "[2]": {"system": "Bel7402 (human hepatocellulor)", "test": "In vitro tumour cell growth inhibition (MTT), Bel-7402", "assay_type": "cell-based", "details": "Table 1 experiment, 96 h", "experimental": "as §1, §2, §3\n(§5) The IC50 was calculated from the curve of the tested compound concentrations against the inhibition rate of the tumour cells. […]"}, "[3]": {"system": "HCT-8 (human colon)", "test": "In vitro tumour cell growth inhibition (MTT), HCT-8", "assay_type": "cell-based", "details": "Table 1 experiment, 96 h", "experimental": "as §1, §2, §3, §5"}, "[4]": {"system": "SHG-44 (human glioma)", "test": "In vitro tumour cell growth inhibition (MTT), SHG-44", "assay_type": "cell-based", "details": "Homo sapiens, SHG-44, Table 2 experiment, 96 h", "experimental": "as §1, §2, §3, §4"}, "[5]": {"system": "TJ905 (human glioma)", "test": "In vitro tumour cell growth inhibition (MTT), TJ905", "assay_type": "cell-based", "details": "Homo sapiens, Table 2 experiment, 96 h", "experimental": "as §1, §2, §3, §4"}, "[6]": {"test": "Measured log P, octanol/water", "assay_type": "physicochemical", "details": "octanol/water system; read-out: measured Log P (mLog P)", "experimental": "Log P values of temozolomide (1) and the temozolomide esters were calculated using TSAR (Oxford Molecular, Oxford, UK), Molecular Modeling Pro (ChemSW, Fairfield, Calif.) and Chem Office 7.0 (CambridgeSoft, Cambridge, UK) programmes. Calculated Log P values were verified for temozolomide and the temozolomide hexyl ester by measuring the octanol/water coefficient (Table 4)."}, "[7]": {"test": "In vitro permeation, Franz diffusion cell, silicone membrane", "assay_type": "in vitro ADME", "details": "37° C., 8 h, FIGS. 3-5", "description": "Jacketed Franz-type diffusion cells were used throughout the study and the barrier (12) (skin or silicone membrane) was mounted between the two chambers (14, 16) (2.8–3.4 cm^2 available surface area) with the dermal side in contact with the receiver solution (FIG. 2). The diffusion chambers (10) comprised a barrier of skin or silicone membrane (12) mounted between two chambers (14, 16). A cap (18) formed the donor compartment (14). The second receptor compartment (16) contained a receptor cell (20) with a stirring bar (22), sampling port (24) and cover (26). The stirring bar (22) was stirred by means of a magnet plate (28) having a rotating magnet. The receptor compartment comprised a water jacket (30) having a water inlet (32) and a water outlet (34).\nThree types of materials were used in permeation studies. • 1. Silicone membrane (Silastic Medical Grade, 500-5, Dow Corning 0.005 in thick) was cut into circular sections (2 cm diameter) and washed with double distilled water prior to use. • 2. Full-thickness rat skin was obtained from Male Wistar rats aged 10 to 12 weeks and weighing 250 to 300 g, which were sacrificed by cervical dislocation, the abdomen shaved and the intact skin removed by dissection. Following removal of fat tissue, the skin was cut into circular pieces and used immediately. • 3. Samples of adult human epidermis were purchased from the Stephen Kirby Skin Bank (UK). The samples were from the leg, were stored at −18° C. and used within one week. Experiments\nThe membrane (as detailed above) was mounted on the diffusion cell (10), on which the surface area available for diffusion of each cell was about 2.8–3.4 cm^2. The cell cap (18) was placed on the membrane (12), and it was sealed with Parafilm® connecting the cell cap, membrane, and receptor cell. The capacity of each receptor cell was around 25–26 ml, which was filled with receptor solution and was completely in contact with the membrane sheet. During the course of experiment, the solution was continuously stirred by teflon-coated magnetic bar (22) placed in the cell (20). The temperature was maintained at 37° C. by a thermostatic water pump that circulated the water through the jacket (30) surrounding the cell body. The system was allowed to equilibrate under these conditions for half an hour. Finally, the prepared sample solution (2 ml) was added into the donor cap cell, and it was sealed with Parafilm® to minimize the evaporation of donor solution. 1 ml of receptor solution was removed every 30 minutes for 5 hours and then every 60 minutes for a further 3 hours. The volumes withdrawn were always replaced with equal volumes of fresh receptor solution to maintain constant volume. The concentration of each sample solution was determined by using HPLC.\nFor every sample, six determinations were performed on human and rat skin, and three determinations were carried out through artificial silicone membrane.\nAs stated above, after the removal of receptor solution, the receiver compartment was refilled with an identical volume of receptor fluid. This causes of the dilution of receptor solution leading to an under determination of the sample concentration. As a consequence, it was necessary to mathematically correct each successive sample concentrations, in the present invention, which was determined by applying the following equation:\n[formula] where Ct is the actual current concentration of drug in the receptor phase at time t, Cmt is the apparent (i.e. measured) current concentration of drug in the receptor phase, Vs is the sample volume withdrawn for analysis, Vr is the volume of receptor solution, and ΣCm is the summed total of the previous measured concentrations.\nFinally, the amount of drug penetrating the skin per unit area was calculated by dividing the obtained concentrations by the surface area available for diffusion cell and this value was different for each individual cell. […]"}},
  "data": [
    {"smiles": "CCCCCCOC(=O)c1ncn2c(=O)n(C)nnc12", "note": "[temozolomide hexyl ester, Hexyl 3,4-dihydro-3-methyl-4-oxoimidazo[5,1-d]-1,2,3,5-tetrazine-8-carboxylate]", "values": [
      {"measurement": "IC50", "setting": "[1]; Table 1 experiment", "value": 8.84, "unit": "µg/mL"},
      {"measurement": "IC50", "setting": "[1]; Table 2 experiment (separate)", "value": 25, "unit": "µg/mL"},
      {"measurement": "IC50", "setting": "[2]", "value": 27.2, "unit": "µg/mL"},
      {"measurement": "IC50", "setting": "[3]", "value": 28.6, "unit": "µg/mL"},
      {"measurement": "IC50", "setting": "[4]", "value": 9.46, "unit": "µg/mL"},
      {"measurement": "IC50", "setting": "[5]", "value": "> 100", "unit": "µg/mL"},
      {"measurement": "logP", "setting": "[6]", "value": 2.56},
      {"measurement": "Permeation through synthetic silicone membrane", "setting": "[7]", "value": "passed through the membrane far more efficiently"}
    ]}
  ]
}
